Usually IC50 stands for the midpoint of a concentration-inhibition curve. Usually MIC stands for the smallest concentration in the dilution series that meets the test's criterion for growth inhibition. The GI50 is the concentration giving 50% growth inhibition. The inhibition is the drop in the measured response relative to a control, in per cent. As usually defined, the LC50 is the concentration lethal to half of the exposed cells or organisms.

The text below walks through data of ChEMBL document CHEMBL5260825, “Chemical Constituents of Bryophytes: Structures and Biological Activity” (J Nat Prod, 2018).

Values after ≈ are worked out from the molar mass of the structure shown. Values joined by “and” are separate entries in the source; they are usually repeats but may differ in a detail not shown here. Identical values can stand only once.

One data set has as its system HL-60. Kind of data set: Antiproliferative activity against human HL-60 cells assessed as cell growth inhibition. The format is functional, cell-based.
The next data set relates to Staphylococcus aureus. The data set can be described thus: Antibacterial activity against Staphylococcus aureus assessed as inhibition of bacterial growth by agar diffusion method. The data set is classed as functional.
Another data set relates to RAW264.7. The data set can be described thus: Inhibition of LPS-induced NO production in mouse RAW264.7 cells incubated for 24 hrs by Griess reagent based assay. The conditions noted are these: RAW264.7, 24 h. The data set is classed as functional, cell-based.
A short description of data set [1]: Antioxidant activity assessed as DPPH radical scavenging activity. The data set is classed as functional.
A further data set has as its system Bacillus subtilis. The data set can be described thus: Antibacterial activity against Bacillus subtilis assessed as inhibition of bacterial growth. The data set is classed as functional.
A further data set concerns K562. The data set can be described thus: Antiproliferative activity against human K562 cells assessed as cell growth inhibition. The data set is classed as functional.
The subject of a further data set is HT-29. The data set can be described thus: Antiproliferative activity against human HT-29 cells assessed as cell growth inhibition. The data set is classed as functional, cell-based.
For another data set, the system named is MCF7. Kind of data set: Antiproliferative activity against human MCF7 cells assessed as cell growth inhibition. The data set is classed as functional, cell-based.
Data set [2] is described as follows: Cytotoxicity against mouse 3T3 cells assessed as reduction in cell viability. The conditions noted are these: NIH3T3 cells. The format is toxicity, cell-based.
In another data set the test system is M14. The data set can be described thus: Antiproliferative activity against human M14 cells assessed as cell growth inhibition. The format is functional.
For the next data set, the system named is DU-145. The data set can be described thus: Antiproliferative activity against human DU-145 cells assessed as cell growth inhibition. The data set is classed as functional.
Data set [3] has as its target Calmodulin-1 (Homo sapiens) (UniProt P0DP23). Kind of data set: Inhibition of calmodulin (unknown origin).
The target in data set [4] is T1, Polyunsaturated fatty acid 5-lipoxygenase (Homo sapiens) (UniProt P09917).
T1 sequence (whole entry): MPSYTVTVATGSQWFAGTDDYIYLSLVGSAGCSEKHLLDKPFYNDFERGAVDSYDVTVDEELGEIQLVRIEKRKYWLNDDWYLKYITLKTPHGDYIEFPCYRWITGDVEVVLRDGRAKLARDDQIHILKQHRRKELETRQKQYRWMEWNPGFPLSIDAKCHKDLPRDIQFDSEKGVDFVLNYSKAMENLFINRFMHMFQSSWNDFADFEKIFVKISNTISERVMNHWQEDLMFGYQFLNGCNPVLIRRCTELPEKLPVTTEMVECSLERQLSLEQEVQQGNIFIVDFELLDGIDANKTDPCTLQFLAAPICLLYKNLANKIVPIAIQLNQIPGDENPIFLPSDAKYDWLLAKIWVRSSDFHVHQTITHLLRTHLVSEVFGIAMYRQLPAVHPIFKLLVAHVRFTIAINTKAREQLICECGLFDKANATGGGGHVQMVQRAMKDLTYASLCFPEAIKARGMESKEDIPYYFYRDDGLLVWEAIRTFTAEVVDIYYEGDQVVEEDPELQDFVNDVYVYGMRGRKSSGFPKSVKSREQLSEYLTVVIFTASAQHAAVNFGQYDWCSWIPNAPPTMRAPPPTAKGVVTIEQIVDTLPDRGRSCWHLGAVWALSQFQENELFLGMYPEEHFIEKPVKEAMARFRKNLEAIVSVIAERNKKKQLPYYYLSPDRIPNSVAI
The data set can be described thus: Inhibition of ALOX5 (unknown origin) at 0.000001 M relative to control. The conditions noted are these: dose 1 µM.

For data set [5], the system named is Panel NCI-60 (60 carcinoma cell lines). The data set can be described thus: Antiproliferative activity against human Panel NCI-60 (60 carcinoma cell lines) assessed as cell growth inhibition. The data set is classed as functional.
A further data set concerns P388. The data set can be described thus: Antiproliferative activity against mouse P388 cells assessed as cell growth inhibition. The data set is classed as functional, cell-based.
For the next data set, the target named is DNA polymerase beta (Homo sapiens, UniProt P06746). Kind of data set: Inhibition of DNA polymerase beta (unknown origin).
The subject of data set [6] is Human immunodeficiency virus 1. Kind of data set: Antiviral activity against HIV-1. The data set is classed as functional, organism-based.
The next data set has as its system KB. Kind of data set: Antiproliferative activity against human KB cells assessed as cell growth inhibition. The data set is classed as functional, cell-based.
Data set [7] deals with Candida albicans. The data set can be described thus: Antifungal activity against Candida albicans assessed as inhibition of fungal growth by MTT assay. The format is functional. (In general: Tetrazolium dyes change colour on reduction, which living cells bring about.)
A further data set has as its target Cyclooxygenase (Homo sapiens, UniProt P35354+P23219). Kind of data set: Inhibition of COX (unknown origin). The data set is classed as protein assay.
The test system of data set [8] is Trypanosoma brucei brucei. The data set can be described thus: […] activity against Trypanosoma brucei brucei GUTat 3.1 assessed as inhibition of parasite growth measured after 72 hrs by alamar blue assay. The conditions noted are these: GUTat 3.1, time 72 hrs, read-out: ED50 (the source's name). The format is functional, organism-based. (The colour change of resazurin is a common sign of viable cells or microbes.)

Data set [9] has as its system Candida albicans. The data set can be described thus: Antifungal activity against Candida albicans assessed as inhibition of fungal growth by MTT method. The format is functional.
Data set [10] concerns the target T1, Polyunsaturated fatty acid 5-lipoxygenase (Homo sapiens). The data set can be described thus: Inhibition of ALOX5 (unknown origin) assessed as reduction in calmodulin level.
In data set [11] the test system is Trypanosoma brucei brucei. Kind of data set: Antitrypanosomal activity against bloodstream Trypanosoma brucei brucei assessed as parasite growth inhibition measured after 72 hrs by alamar blue assay. The data set is classed as functional, organism-based.
The subject of another data set is Botrytis cinerea. The data set can be described thus: Antifungal activity against Botrytis cinerea assessed as inhibition of microbial growth by microtiter plate based analysis. The format is functional, organism-based.
The subject of the next data set is Zymoseptoria tritici. Kind of data set: Antifungal activity against Zymoseptoria tritici assessed as inhibition of microbial growth by microtiter plate based analysis. The format is functional, organism-based.
The subject of another data set is Pyricularia oryzae. The data set can be described thus: Antifungal activity against Pyricularia oryzae assessed as inhibition of microbial growth by microtiter plate based analysis. The data set is classed as functional, organism-based.
The nature of data set [12]: Toxicity in brine shrimp assessed as lethality. The conditions noted are these: artemia salina.
Data set [13] concerns Trichostrongylus colubriformis. Kind of data set: Anthelmintic activity against third stage larvae of Trichostrongylus colubriformis by microscope based analysis. The format is functional, organism-based.
In data set [14] the test system is Trichophyton mentagrophytes. The data set can be described thus: Antifungal activity against Trichophyton mentagrophytes assessed as inhibition of microbial growth. The format is functional.
A further data set relates to Cladosporium cucumerinum. The data set can be described thus: Antifungal activity against Cladosporium cucumerinum assessed as inhibition of microbial growth by bioautographic TLC method. The format is functional.

Consider `Cc1cc([C@@]2(C)CCCC2(C)C)c(O)c(O)c1Cc1cc(O)c(O)c([C@@]2(C)CCCC2(C)C)c1`, for which the IC50 in the data set with HL-60 came to 2.4 µg/mL (≈ 5.14 µM); with RAW264.7, 4.1 µM; in [1] it was 2.7 µg/mL (≈ 5.79 µM). In addition, in the data set on Staphylococcus aureus, the “diameter of the inhibition zone (DIZ)” value is 13 mm. Moreover, the minimal inhibitory concentration (MIC) with Bacillus subtilis turned out to be 2 µg/mL (≈ 4.29 µM).

On to `CC(=O)O[C@H]1OC=C(CO)[C@@H]2[C@@H]3[C@H](CC[C@@]4(CO4)[C@H]12)C3(C)C`, for which the 50% growth inhibitory concentration (GI50) with K562 amounted to 8.7 µM; in the data set on HT-29, 6.1 µM; with MCF7, 9 µM; in data set [2] it was 3.8 µM; with M14, 6.4 µM; with DU-145, 4.8 µM.

In turn, `COc1ccc2c(c1)CCc1ccc(cc1)Oc1cc(ccc1O)CCc1ccc-2c(O)c1` showed an ID50 in data set [3] of 20 µg/mL (≈ 45.6 µM). The inhibition in [4] was 4%.

`C=C1C(=O)C2=C[C@H]1CCC(=O)[C@]1(C)CCCC(C)(C)[C@H]1C[C@H]2O`: in data set [5], the 50% growth inhibitory concentration (GI50) worked out at 1.2 µM. In the data set with P388, the concentration for 50% growth inhibition (GI50) was 0.1 µg/mL and 300 nM; the IC50 turned out to be 0.06 µg/mL (≈ 0.19 µM).

As for `Oc1cc2cc(c1O)Oc1ccc(cc1)CCc1cccc(O)c1Oc1cccc(c1)CC2O` (stereo unspecified), the IC50 at DNA polymerase beta worked out at 14.4 µM; in [6], 5.3 µg/mL (≈ 11.6 µM). Besides, in data set [4], the inhibition stood at 4%.

With `Oc1cc2cc(c1O)Oc1ccc(cc1)CCc1ccc(O)c(O)c1Oc1cccc(c1)CC2` [MARCHANTIN B], the IC50 was 14.4 µM against DNA polymerase beta, 3.2 µM in the data set on KB, 55.9 µM on Cyclooxygenase and 5.3 µg/mL (≈ 11.6 µM) in [6]. Moreover, in the data set on Candida albicans [7], the MID is 4 µg/mL.

Take `NCCCC(N)(C(=O)O)C(F)F` (stereo unspecified) [EFLORNITHINE]: the EC50 in data set [8] was 2.27 µg/mL (≈ 12.5 µM).

`COC(=O)c1c(C)cc(OC(=O)c2c(C)cc(O)c(C=O)c2O)c(C)c1O` [ATRANORIN]: in the data set with Candida albicans [9], the minimum inhibitory concentration (MIC) came to 2 µg/mL (≈ 5.34 µM).

In the case of `C=C1C(=O)C2=C[C@H]1C[C@H](O)C(=O)[C@]1(C)CCCC(C)(C)[C@H]1C[C@H]2O`, the GI50 in [5] turned out to be 1.5 µM.

On to `C=C(C)[C@H]1Cc2c(CCc3ccccc3)cc(O)c(O)c2O1`, for which the ID50 in data set [10] was found to be 2 µg/mL (≈ 6.75 µM). Besides, the half-inhibitory concentration (IC50) on Cyclooxygenase worked out at 26.2 µM; in data set [11], 0.44 µg/mL (≈ 1.48 µM).

Regarding `COc1cc([C@@]2(C)CCCC2(C)C)cc(O)c1C`, the values for the IC50 (in [11]; with RAW264.7) were 0.93 µg/mL (≈ 3.74 µM) and 4.1 µM, respectively.

Consider `Oc1ccc2c(c1)CCc1ccc(O)c(c1)-c1cc(cc(Cl)c1O)/C=C(/Cl)c1ccc-2c(O)c1`, for which the half-inhibitory concentration (IC50) in the data set on Botrytis cinerea was found to be 7.6 µg/mL; in the data set with Zymoseptoria tritici it was 15.9 µg/mL; in the data set with Pyricularia oryzae, 3.9 µg/mL.

Turning to `Oc1ccc2c(c1)CCc1ccc(O)c(c1)-c1cc(ccc1O)CCc1ccc-2c(O)c1` [ISOPLAGIOCHIN D], the half-inhibitory concentration (IC50) with Zymoseptoria tritici came to 23.5 µg/mL; in the data set with Pyricularia oryzae, 4 µg/mL.

In the case of `COc1ccc(CCc2c(Cl)ccc(O)c2Cl)cc1`, in data set [12], the median lethal concentration (LC50) came out at 0.42 ppm.

In the case of `COc1cc(/C=C/c2ccccc2)ccc1O`, in [13], half-maximal inhibition (IC50) required 60 µg/mL (≈ 265 µM).

Regarding `Oc1ccc(CCc2c(Cl)cc(Cl)c(O)c2Cl)cc1Cl`, the LC50 in data set [12] was found to be 0.42 ppm.

For `Oc1ccc2c(c1)CCc1ccc(O)c(c1)-c1cc(cc(Cl)c1O)CCc1ccc-2c(O)c1`, the half-maximal inhibitory concentration (IC50) with Botrytis cinerea stood at 18.9 µg/mL; in the data set with Zymoseptoria tritici, 4.5 µg/mL; in the data set with Pyricularia oryzae, 2.6 µg/mL.

On to `Oc1ccc2cc1Oc1ccc(cc1)CCc1ccc(c(O)c1O)Oc1cccc(c1)CC2`, for which the MID in the data set on Candida albicans [7] amounted to 0.2 µg/mL. In addition, in data set [14], the MIC worked out at 0.5 µg/mL.

For the compound `C=C1CC[C@@H]2[C@H]1[C@H]1OC(=O)C(=C)[C@@H]1CC[C@@]2(C)OC(C)=O`, the MIC in the data set on Cladosporium cucumerinum was 10 µg/mL.
